Measured values taken from ChEMBL document CHEMBL1126109 (J Med Chem, 1992).
pEC50, pIC50: −log10 of the molar value.

Assays:
Type in all cases: protein-complex assay
Glutamate NMDA receptor [1] = assay: Compound was evaluated for the inhibition of [3H]-CGS-19,755 binding at N-methyl-D-aspartate glutamate receptor
Glutamate NMDA receptor [2] = assay: Compound was evaluated for the inhibition of [3H]norepinephrine binding at N-methyl-D-aspartate glutamate receptor
Glutamate NMDA receptor [3] = assay: Compound was evaluated for the inhibition of [3H]MK-801 binding at N-methyl-D-aspartate glutamate receptor

Row | SMILES | pIC50 (Glutamate NMDA receptor [1]) | pEC50 (Glutamate NMDA receptor [2]) | pEC50 (Glutamate NMDA receptor [3])
1 | CN[C@H](CC(=O)O)C(=O)O [N-METHYL-D-ASPARTIC ACID (NMDA)] | 5.38 | 4.12 | 5.16
2 | N[C@]1(C(=O)O)C[C@@H](C(=O)O)C1 | 6.79 | 4.78 | 6.74
3 | NC(C(=O)O)c1nnn[nH]1 (racemic) | 7.01 | 5.69 | 7.15
4 | N[C@@H](CC(=O)O)C(=O)O [ASPARTIC ACID] | 5.79 |  | 
